# Reference: ChEMBL document CHEMBL1782014, “20(R)-ginsenoside Rh2, not 20(S), is a selective osteoclastgenesis inhibitor without any cytotoxicity” (Bioorg Med Chem Lett, 2009)
# Tests used:
# [1] = Toxicity in RANKL and TNFalpha-pretreated mouse RAW264 cells assessed as effect on cell proliferation upto 50 uM incubated for 3 days by WST-1 assay; conditions: raw264, 72 h
# [2] = tested on: Radical scavenging activity; experiment: Antioxidant activity assessed as DPPH radical scavenging activity at 1.6 mM after 20 mins by UV spectrophotometry; assay type: functional
# [3] = Inhibition of RANKL and TNF-alpha-induced osteoclastogenesis in mouse RAW264 cells incubated for 3 days by TRAP staining based method; assay type: functional, cell-based; conditions: RAW264.7, 72 h
# [4] = Toxicity in RANKL and TNFalpha-pretreated mouse RAW264 cells assessed as inhibition of cell proliferation upto 100 uM incubated for 3 days by WST-1 assay; conditions: raw264, 72 h
# [5] = Toxicity in RANKL and TNFalpha-pretreated mouse RAW264 cells assessed as inhibition of cell proliferation incubated for 3 days by WST-1 assay; conditions: RAW264 cells pretreated with RANKL and TNFalpha
# [6] = tested on: Radical scavenging activity; experiment: Antioxidant activity assessed as DPPH radical scavenging activity at 0.2 mM after 20 mins by UV spectrophotometry; assay type: functional
Structure (SMILES),Activity [1],Activity [2] [%],IC50 [3] [µM],Activity [4],IC50 at 3 days [5] [µM],Activity [6] [%]
CC(C)=CCC[C@@](C)(O)[C@H]1CC[C@]2(C)[C@@H]1[C@H](O)C[C@@H]1[C@@]3(C)CC[C@H](O[C@@H]4O[C@H](CO)[C@@H](O)[C@H](O)[C@H]4O)C(C)(C)[C@@H]3CC[C@]12C,Non-toxic,< 10,12,Non-toxic,,
CC(C)=CCC[C@](C)(O)[C@H]1CC[C@]2(C)[C@@H]1[C@H](O)C[C@@H]1[C@@]3(C)CC[C@H](O[C@@H]4O[C@H](CO)[C@@H](O)[C@H](O)[C@H]4O)C(C)(C)[C@@H]3CC[C@]12C [GINSENOSIDE RH2],,< 10,32,,62,
Cc1c(C)c2c(c(C)c1O)CC[C@@](C)(CCC[C@H](C)CCC[C@H](C)CCCC(C)C)O2,,,,,,96
